Experimental data: patent publication US20250163047A1, “HETEROCYCLIC COMPOUNDS, COMPOSITIONS THEREOF, AND METHODS OF TREATMENT THEREWITH” (BeiGene, Ltd., priority 2022, published 2025)

Assays:
Cbl (aa49-434) = target: T1, Cbl (aa49-434) (Homo sapiens, UniProt P22681); assay: Co-expressed Cbl with BirA biochemical assay (CBL/E2-Ub binding, HTRF); details: 0.6 nM Cbl co-expressed with BirA, read-out: co-express CBL/E2-Ub-binding assay IC50
T1 construct: Cbl (aa49-434, in-house); made in house
T1 sequence (P22681 49-434): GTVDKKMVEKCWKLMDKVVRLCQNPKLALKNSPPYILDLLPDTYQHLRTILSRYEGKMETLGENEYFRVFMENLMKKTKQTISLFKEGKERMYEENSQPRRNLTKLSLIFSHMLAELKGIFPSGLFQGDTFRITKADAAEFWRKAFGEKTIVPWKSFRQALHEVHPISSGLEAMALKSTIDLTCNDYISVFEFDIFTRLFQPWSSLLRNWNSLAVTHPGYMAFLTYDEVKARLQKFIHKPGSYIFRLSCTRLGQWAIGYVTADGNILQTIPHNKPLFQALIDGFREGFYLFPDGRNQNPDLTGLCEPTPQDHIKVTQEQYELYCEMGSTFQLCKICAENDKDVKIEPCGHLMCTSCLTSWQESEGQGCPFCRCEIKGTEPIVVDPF
From the text: (§1) The assay in the absence of a Cbl-b/Cbl inhibitor, where phosphorylation of Cbl-b/Cbl by the Src kinase allows UbcH5B-Ub to bind to Cbl-b/Cbl and brings the Bodipy-Fluorescein tagged ubiquitin in proximity to the streptavidin-terbium bound to the N-terminal biotinylated Avi-tagged Cbl-b/Cbl. […] The lack of a FRET signal indicates Cbl-b/Cbl is inhibited by the Cbl-b/Cbl inhibitor.

Cbl-b (aa36-427) = target: T2, Cbl-b (aa36-427) (Homo sapiens, UniProt Q13191); assay: Co-expressed Cbl-b with BirA biochemical assay (CBLB/E2-Ub binding, HTRF); details: 0.6 nM Cbl-b co-expressed with BirA, HTRF; read-out: co-express CBLB/E2-Ub-binding assay IC50
T2 construct: Cbl-b (aa36-427, in-house); made in house
From the text: as §1

T2 sequence (Q13191 36-427): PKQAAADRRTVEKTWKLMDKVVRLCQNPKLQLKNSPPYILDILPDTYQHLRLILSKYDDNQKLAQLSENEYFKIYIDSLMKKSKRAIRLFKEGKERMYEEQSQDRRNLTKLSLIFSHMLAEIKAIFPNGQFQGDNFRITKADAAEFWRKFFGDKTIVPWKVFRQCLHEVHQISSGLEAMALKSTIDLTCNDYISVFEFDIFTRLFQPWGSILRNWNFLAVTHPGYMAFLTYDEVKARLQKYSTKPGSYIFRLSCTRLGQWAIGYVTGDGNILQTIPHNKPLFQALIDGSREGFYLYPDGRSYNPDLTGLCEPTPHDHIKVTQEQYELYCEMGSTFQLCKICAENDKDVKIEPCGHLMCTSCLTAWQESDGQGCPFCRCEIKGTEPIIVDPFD

Structure (SMILES) | IC50 (Cbl (aa49-434)) | IC50 (Cbl-b (aa36-427))
C[C@H](NCc1cc(C(=O)Nc2cccc([C@]3(c4nncn4C)C[C@@H](CC#N)C3)c2)c2nccn2c1)C1CC1 [Compound A27, N-(3-((1s,3R)-3-(cyanomethyl)-1-(4-methyl-4H-1,2,4-triazol-3-yl)cyclobutyl)phenyl)-6-((((S)-1-cyclopropylethyl)amino)methyl)imidazo[1,2-a]pyridine-8-carboxamide] | 8 nM | 1.4 nM
Cn1cnnc1[C@]1(c2cccc(NC(=O)c3cc(CNCC4(C)CCCC4)cn4c(Cl)cnc34)c2)C[C@H](CC#N)C1 [Compound A28, 3-chloro-N-(3-((1s, 3s)-3-(cyanomethyl)-1-(4-methyl-4H-1,2,4-triazol-3-yl)cyclobutyl)phenyl)-6-((((1-methylcyclopentyl)methyl)amino)methyl)imidazo[1,2-a]pyridine-8-carboxamide] | 2.4 nM | 1 nM
Cn1cnnc1C[C@]1(c2cccc(NC(=O)c3cc(CNCC4(C)CCCC4)cn4c(Cl)cnc34)c2)C[C@H](C#N)C1 [Compound A29, 3-chloro-N-(3-((1r, 3r)-3-cyano-1-((4-methyl-4H-1,2,4-triazol-3-yl)methyl)cyclobutyl)phenyl)-6-((((1-methylcyclopentyl)methyl)amino)methyl)imidazo[1,2-a]pyridine-8-carboxamide] | 2.3 nM | 1.3 nM
Cn1cnnc1[C@]1(c2cccc(NC(=O)c3cc(CNCC4(C)CCC4)cn4ccnc34)c2)C[C@H](CC#N)C1 [Compound A30, N-(3-((1s, 3s)-3-(cyanomethyl)-1-(4-methyl-4H-1,2,4-triazol-3-yl)cyclobutyl)phenyl)-6-((((1-methylcyclobutyl)methyl)amino)methyl)imidazo[1,2-a]pyridine-8-carboxamide] | 6.4 nM | 0.6 nM
C[C@H](NCc1cc(C(=O)Nc2cccc([C@]3(c4nncn4C)C[C@@H](CC#N)C3)c2)c2nccn2c1)C1CCCC1 [Compound A31, N-(3-((1s,3R)-3-(cyanomethyl)-1-(4-methyl-4H-1,2,4-triazol-3-yl)cyclobutyl)phenyl)-6-((((S)-1-cyclopentylethyl)amino)methyl)imidazo[1,2-a]pyridine-8-carboxamide] | 1.3 nM | 0.7 nM
Cn1cnnc1[C@]1(c2cccc(NC(=O)c3cc(CNCC(C)(C)C)cn4ccnc34)c2)C[C@H](CC#N)C1 [Compound A32, N-(3-((1s, 3s)-3-(cyanomethyl)-1-(4-methyl-4H-1,2,4-triazol-3-yl)cyclobutyl)phenyl)-6-((neopentylamino)methyl)imidazo[1,2-a]pyridine-8-carboxamide] | 4.9 nM | 1.1 nM
C[C@H](NCc1cc(C(=O)Nc2cccc([C@]3(Cc4nncn4C)C[C@@H](C#N)C3)c2)c2nccn2c1)C1CCCC1 [Compound A33, N-(3-((1r,3S)-3-cyano-1-((4-methyl-4H-1,2,4-triazol-3-yl)methyl)cyclobutyl)phenyl)-6-((((S)-1-cyclopentylethyl)amino)methyl)imidazo[1,2-a]pyridine-8-carboxamide] | 1.1 nM | 1.5 nM
C[C@H](NCc1cc(C(=O)Nc2cccc([C@]3(c4nncn4C)C[C@@H](CC#N)C3)c2)c2ncc(Cl)n2c1)C1CCCC1 [Compound A34, 3-chloro-N-(3-((1s,3R)-3-(cyanomethyl)-1-(4-methyl-4H-1,2,4-triazol-3-yl)cyclobutyl)phenyl)-6-((((S)-1-cyclopentylethyl)amino)methyl)imidazo[1,2-a]pyridine-8-carboxamide] | 7.8 nM | 2.6 nM
Cn1cnnc1[C@]1(c2cccc(NC(=O)c3cc(CNCC4(C)CCC4)cn4c(Cl)cnc34)c2)C[C@H](CC#N)C1 [Compound A35, 3-chloro-N-(3-((1s, 3s)-3-(cyanomethyl)-1-(4-methyl-4H-1,2,4-triazol-3-yl)cyclobutyl)phenyl)-6-((((1-methylcyclobutyl)methyl)amino)methyl)imidazo[1,2-a]pyridine-8-carboxamide] | 13 nM | 2.2 nM
